Laboratory results as given in PubChem BioAssay (NCI).
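Compound exposure: 48 hours, 5 concentrations, 96-well plates. GI50 = concentration required for 50% inhibition of growth. Definition used: TGI = concentration required for complete inhibition of growth.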

Tests used:
Assay in all cases: NCI tumour cell line growth inhibition, 48 h
[1] = tested on: PC-3 prostate
[2] = tested on: UACC-62 melanoma
[3] = tested on: OVCAR-3 ovarian
[4] = tested on: MCF7 breast
[5] = tested on: RXF 393 renal
[6] = tested on: HCT-116 colon
[7] = tested on: MOLT-4 leukemia
[8] = tested on: CCRF-CEM leukemia
[9] = tested on: SW-620 colon
[10] = tested on: RPMI-8226 leukemia
[11] = tested on: NCI-H522 lung
[12] = tested on: T-47D breast
[13] = tested on: SK-MEL-28 melanoma
[14] = tested on: HT29 colon
[15] = tested on: A498 renal
[16] = tested on: SK-MEL-5 melanoma
[17] = tested on: IGROV1 ovarian
[18] = tested on: K-562 leukemia
[19] = tested on: A549 NSCLC
[20] = tested on: SK-MEL-2 melanoma
[21] = tested on: NCI-H226 lung
[22] = tested on: DU-145 prostate
[23] = tested on: HCT-15 colon
[24] = tested on: UO-31 renal
[25] = tested on: OVCAR-5 ovarian
[26] = tested on: SNB-75 CNS
[27] = tested on: MALME-3M melanoma
[28] = tested on: U251 CNS
[29] = tested on: HCC-2998 colon
[30] = tested on: HOP-62 NSCLC
[31] = tested on: NCI-H23 lung
[32] = tested on: NCI-H460 lung
[33] = tested on: LOX IMVI melanoma
[34] = tested on: HS 578T breast
[35] = tested on: MDA-MB-231 breast
[36] = tested on: SF-268 CNS
[37] = tested on: OVCAR-8 ovarian
[38] = tested on: KM12 colon
[39] = tested on: OVCAR-4 ovarian
[40] = tested on: SN12C renal
[41] = tested on: HOP-92 NSCLC
[42] = tested on: NCI/ADR-RES ovarian
[43] = tested on: UACC-257 melanoma
[44] = tested on: CAKI-1 renal
[45] = tested on: M14 melanoma
[46] = tested on: MDA-MB-435
[47] = tested on: SF-539 CNS
[48] = tested on: BT-549 breast
[49] = tested on: HL-60(TB) leukemia
[50] = tested on: 786-0 renal
[51] = tested on: TK-10 renal
[52] = tested on: SR leukemia
[53] = tested on: COLO 205 colon
[54] = tested on: SNB-19 CNS
[55] = tested on: ACHN renal
[56] = tested on: SF-295 CNS
[57] = tested on: SK-OV-3 ovarian
[58] = tested on: EKVX NSCLC

Work on `COc1cccc(C(=O)NC(c2ccc(C)cc2)c2cc(Cl)c3cccnc3c2O)c1` (configuration not stated) yielded a GI50 [1] of 0.423 µM, a TGI [1] of 16.2 µM and a GI50 [2] of 0.357 µM. The TGI [2] was 3.13 µM, the GI50 [3] was 346 nM and the TGI [3] was 18.6 µM. For the same compound, the GI50 [4] was 0.371 µM, the TGI [4] was greater than 30.4 µM and the GI50 [5] was 0.736 µM. It also gave a TGI [5] of 3.44 µM, a GI50 [6] of 495 nM and a TGI [6] of 14.4 µM. It also gave a GI50 [7] of 622 nM, a TGI [7] of 8.05 µM and a GI50 [8] of 366 nM. The TGI [8] was 11.7 µM, the GI50 [9] was 425 nM and the TGI [9] was 23.4 µM. For the same compound, the GI50 [10] was 621 nM, the TGI [10] was 19.1 µM and the GI50 [11] was 0.291 µM. It also gave a TGI [11] of 1.65 µM, a GI50 [12] of 517 nM and a TGI [12] of 12.1 µM. For the same compound, the GI50 [13] was 0.743 µM, the TGI [13] was 17.1 µM and the GI50 [14] was 623 nM. It also gave a TGI [14] of 19.8 µM, a GI50 [15] of 1.28 µM and a TGI [15] of 11.6 µM. For the same compound, the GI50 [16] was 0.318 µM, the TGI [16] was 1.32 µM and the GI50 [17] was 500 nM. The TGI [17] was 12.4 µM, the GI50 [18] was 466 nM and the TGI [18] was 54.8 µM. It also gave a GI50 [19] of 0.473 µM, a TGI [19] of 11.2 µM and a GI50 [20] of 0.767 µM. It also gave a TGI [20] of 9.16 µM, a GI50 [21] of 0.568 µM and a TGI [21] of 2.57 µM. For the same compound, the GI50 [22] was 1140 nM, the TGI [22] was 14.3 µM and the GI50 [23] was 0.309 µM. For the same compound, the TGI [23] was 28.2 µM, the GI50 [24] was 0.362 µM and the TGI [24] was 10.8 µM. It also gave a GI50 [25] of 1.13 µM, a TGI [25] of 24.4 µM and a GI50 [26] of 326 nM. The TGI [26] was 11.9 µM, the GI50 [27] was 1.42 µM and the TGI [27] was 15.6 µM. It also gave a GI50 [28] of 0.333 µM, a TGI [28] of 11.2 µM and a GI50 [29] of 0.786 µM. For the same compound, the TGI [29] was 15.1 µM, the GI50 [30] was 0.496 µM and the TGI [30] was 9.58 µM. It also gave a GI50 [31] of 552 nM, a TGI [31] of 22.2 µM and a GI50 [32] of 0.359 µM. The TGI [32] was 4.66 µM, the GI50 [33] was 563 nM and the TGI [33] was 11.6 µM. For the same compound, the GI50 [34] was 0.362 µM, the TGI [34] was 30.5 µM and the GI50 [35] was 0.612 µM. It also gave a TGI [35] of 15.4 µM, a GI50 [36] of 0.619 µM and a TGI [36] of 12.4 µM. It also gave a GI50 [37] of 0.476 µM, a TGI [37] of 26.7 µM and a GI50 [38] of 0.545 µM. It also gave a TGI [38] of 16.8 µM, a GI50 [39] of 0.298 µM and a TGI [39] of 10.2 µM. The GI50 [40] was 0.661 µM, the TGI [40] was 13.2 µM and the GI50 [41] was 0.474 µM. The TGI [41] was 9.33 µM, the GI50 [42] was 0.33 µM and the TGI [42] was greater than 88.6 µM. The GI50 [43] was 0.653 µM, the TGI [43] was 12.7 µM and the GI50 [44] was 465 nM. It also gave a TGI [44] of 15.8 µM, a GI50 [45] of 677 nM and a TGI [45] of 10.8 µM. For the same compound, the GI50 [46] was 560 nM, the TGI [46] was 23.7 µM and the GI50 [47] was 445 nM. For the same compound, the TGI [47] was 3.27 µM, the GI50 [48] was 1.32 µM and the TGI [48] was 18.6 µM. For the same compound, the GI50 [49] was 427 nM, the TGI [49] was 2840 nM and the GI50 [50] was 725 nM. It also gave a TGI [50] of 5.5 µM, a GI50 [51] of 0.393 µM and a TGI [51] of 4.8 µM. It also gave a GI50 [52] of 538 nM, a TGI [52] of 5.66 µM and a GI50 [53] of 387 nM. The TGI [53] was 1860 nM, the GI50 [54] was 0.371 µM and the TGI [54] was 29 µM. For the same compound, the GI50 [55] was 445 nM, the TGI [55] was 10.4 µM and the GI50 [56] was 0.382 µM. It also gave a TGI [56] of 15.3 µM, a GI50 [57] of 0.682 µM and a TGI [57] of 11.3 µM.

With `N#CC(C#N)=C/C=C(\Sc1nc2ccccc2s1)c1ccc(Cl)cc1` the GI50 [1] was 6.67 µM, the TGI [1] was 27.7 µM and the GI50 [2] was 8.89 µM. The TGI [2] was 29.4 µM, the GI50 [3] was 4770 nM and the TGI [3] was 22.9 µM. The GI50 [4] was 7.65 µM, the TGI [4] was greater than 100 µM and the GI50 [5] was 7.59 µM. The TGI [5] was 25.9 µM, the GI50 [6] was 2140 nM and the TGI [6] was 5.78 µM. The GI50 [7] was 565 nM, the GI50 [8] was 577 nM and the TGI [8] was greater than 100 µM. It also gave a GI50 [9] of 410 nM, a GI50 [11] of 10.1 µM and a TGI [11] of 41.9 µM. For the same compound, the TGI [12] was greater than 33 µM, the GI50 [13] was 5.34 µM and the TGI [13] was 21.7 µM. It also gave a GI50 [14] of 3270 nM, a TGI [14] greater than 31.7 µM and a GI50 [15] of 8.26 µM. For the same compound, the TGI [15] was 28.6 µM, the GI50 [16] was 10.4 µM and the TGI [16] was 24.6 µM. For the same compound, the GI50 [17] was 4870 nM, the TGI [17] was 12.5 µM and the GI50 [18] was 1450 nM. For the same compound, the TGI [18] was greater than 24.6 µM, the GI50 [19] was 9.32 µM and the TGI [19] was 30.5 µM. It also gave a GI50 [20] of 27.8 µM, a TGI [20] greater than 100 µM and a GI50 [21] of 7.73 µM. The TGI [21] was 22.8 µM, the GI50 [22] was 3980 nM and the TGI [22] was 17.1 µM. For the same compound, the GI50 [23] was 6.72 µM, the TGI [23] was greater than 44.2 µM and the GI50 [24] was 7.85 µM. For the same compound, the TGI [24] was 29.3 µM, the GI50 [25] was 7.02 µM and the TGI [25] was 21.5 µM. For the same compound, the GI50 [26] was 1310 nM, the TGI [26] was 8.82 µM and the GI50 [27] was 5.29 µM. It also gave a TGI [27] of 16.5 µM, a GI50 [28] of 6.82 µM and a TGI [28] of 36.4 µM. For the same compound, the GI50 [29] was 13.8 µM, the TGI [29] was 29 µM and the GI50 [30] was 14 µM. It also gave a TGI [30] of 30.5 µM, a GI50 [31] of 3560 nM and a TGI [31] of 13.2 µM. It also gave a GI50 [32] of 18 µM, a TGI [32] greater than 64.9 µM and a GI50 [33] of 2590 nM. The TGI [33] was greater than 26.5 µM, the GI50 [34] was 6.68 µM and the TGI [34] was 27.9 µM. For the same compound, the GI50 [35] was 5.87 µM, the TGI [35] was 22.3 µM and the GI50 [36] was 14.6 µM. The TGI [36] was 33 µM, the GI50 [37] was 7.53 µM and the TGI [37] was 25 µM. For the same compound, the GI50 [38] was 8.9 µM, the TGI [38] was 33.6 µM and the GI50 [39] was 16 µM. The TGI [39] was 47.5 µM, the GI50 [40] was 7.88 µM and the TGI [40] was greater than 53.1 µM. The GI50 [41] was 13.8 µM, the TGI [41] was 29.3 µM and the GI50 [42] was 7.19 µM. The TGI [42] was 22.6 µM, the GI50 [43] was 12.1 µM and the TGI [43] was 25.4 µM. It also gave a GI50 [44] of 1930 nM, a TGI [44] of 9.82 µM and a GI50 [45] of 3190 nM. The TGI [45] was 10.5 µM, the GI50 [46] was 2860 nM and the TGI [46] was 11.1 µM. It also gave a GI50 [47] of 2830 nM, a TGI [47] of 9.89 µM and a GI50 [48] of 11.3 µM. It also gave a TGI [48] of 26.2 µM, a GI50 [50] of 3430 nM and a TGI [50] of 12 µM. It also gave a GI50 [51] of 6.18 µM, a TGI [51] of 15 µM and a GI50 [52] of 844 nM. It also gave a GI50 [53] of 3260 nM, a TGI [53] greater than 27700 nM and a GI50 [58] of 18.4 µM. The TGI [58] was 40 µM, the GI50 [54] was 8.12 µM and the TGI [54] was greater than 41.2 µM. It also gave a GI50 [55] of 4610 nM, a TGI [55] greater than 35.5 µM and a GI50 [56] of 8.9 µM. For the same compound, the TGI [56] was 27.7 µM, the GI50 [57] was 11.9 µM and the TGI [57] was greater than 42.2 µM.
